# Measured values published in patent US20040266732A1, “Therapeutic agents, methods, and treatments” (priority 2002, published 2004).
# pIC50: −log10 of the molar value.
# Assays:
# Test in all cases: NCI 60 cell-line test
# Assay type in all cases: cell-based, human
# [1] = system: KM12; conditions: KM12 (Colon Cancer)
# Method: (§1) Methodology: The NCI conducted a test of the MT103 drug against 60 human cell lines, with a minimum of five concentrations of MT103 at 10-fold dilutions. A 48 hour continuous drug exposure was used, and a sulforhodamine B (SRB) protein assay was used to estimate cell viability and growth. The human tumor cell lines of the cancer screening panel were grown in RPMI 1640 medium containing 5% fetal bovine serum and 2 mM L-glutamine. Cells were inoculated into 96 well microtiter plates in 100 μL at plating densities ranging from 5,000 to 40,000 cells/well depending on the doubling time of individual cell lines. After cell inoculation, the microtiter plates are incubated at 37° C., 5% CO2, 95% air, and 100% relative humidity for 24 h prior to addition of experimental drugs.
# (§2) After 24 h, two plates of each cell line were fixed in situ with TCA, to represent a measurement of the cell population for each cell line at the time of drug addition (Tz). MT103 was solubilized in dimethyl sulfoxide at 400-fold the desired final maximum test concentration and stored frozen prior to use. At the time of drug addition, an aliquot of frozen concentrate was thawed and diluted to twice the desired final maximum test concentration with complete medium containing 50 μg/ml gentamicin. Additional four, 10-fold or ½ log serial dilutions were made to provide a total of five drug concentrations plus control. Aliquots of 100 μl of these different drug dilutions were added to the appropriate microtiter wells already containing 100 μl of medium, resulting in the required final drug concentrations.
# (§3) Following drug addition, the plates were incubated for an additional 48 h at 37° C., 5% CO2, 95% air, and 100% relative humidity. For adherent cells, the assay was terminated by the addition of cold TCA. Cells were fixed in situ by the gentle addition of 50 μl of cold 50% (w/v) TCA (final concentration, 10% TCA) and incubated for 60 minutes at 4° C. The supernatant was discarded, and the plates were washed five times with tap water and air dried. Sulforhodamine B (SRB) solution (100 μl) at 0.4% (w/v) in 1% acetic acid was added to each well, and plates were incubated for 10 minutes at room temperature. After staining, unbound dye was removed by washing five times with 1% acetic acid and the plates were air-dried. Bound stain was subsequently solubilized with 10 mM trizma base, and the absorbance was read on an automated plate reader at a wavelength of 515 nm. For suspension cells, the methodology was the same except that the assay was terminated by fixing settled cells at the bottom of the wells by gently adding 50 μl of 80% TCA (final concentration, 16% TCA). Using the seven absorbance measurements (time zero, (Tz), control growth, (C), and test growth in the presence of drug at the five concentration levels (Ti)), the percentage growth was calculated at each of the drug concentrations levels. Percentage growth inhibition was calculated as:
# (§4) [(Ti-Tz)/(C-Tz)]×100 for concentrations for which Ti>/=Tz
# (§5) [(Ti-Tz)/Tz]×100 for concentrations for which Ti<Tz.
# (§6) Three dose response parameters were calculated for each experimental agent. Growth inhibition of 50% (GI50) was calculated from [(Ti-Tz)/(C-Tz)]×100=50, which is the drug concentration resulting in a 50% reduction in the net protein increase (as measured by SRB staining) in control cells during the drug incubation. The drug concentration resulting in total growth inhibition (TGI) was calculated from Ti=Tz. The LC50 (concentration of drug resulting in a 50% reduction in the measured protein at the end of the drug treatment as compared to that at the beginning) indicating a net loss of cells following treatment was calculated from [(Ti-Tz)/Tz]×100=−50. Values were calculated for each of these three parameters if the level of activity is reached; however, if the effect was not reached or was exceeded, the value for that parameter was expressed as greater or less than the maximum or minimum concentration tested.
# [2] = system: RPMI-8226; conditions: RPMI-8226 (Leukemia)
# Method: as §1, §2, §3, §4, §5, §6
# [3] = system: SK-MEL-2; conditions: SK-MEL-2 (Melanoma)
# Method: as §1, §2, §3, §4, §5, §6
# [4] = system: OVCAR-3; conditions: OVCAR-3 (Ovarian Cancer)
# Method: as §1, §2, §3, §4, §5, §6
# [5] = system: K-562; conditions: K-562 (Leukemia)
# Method: as §1, §2, §3, §4, §5, §6
# [6] = system: EKVX; conditions: EKVX (Non-Small Cell Lung Cancer)
# Method: as §1, §2, §3, §4, §5, §6
# [7] = system: SK-MEL-5; conditions: SK-MEL-5 (Melanoma)
# Method: as §1, §2, §3, §4, §5, §6
# [8] = system: RXF 393; conditions: RXF 393 (Renal Cancer)
# Method: as §1, §2, §3, §4, §5, §6
# [9] = system: BT-549; conditions: BT-549 (Breast Cancer)
# Method: as §1, §2, §3, §4, §5, §6
# [10] = system: MALME-3M; conditions: MALME-3M (Melanoma)
# Method: as §1, §2, §3, §4, §5, §6
# [11] = system: HL-60 (TB); conditions: HL-60 (TB) (Leukemia)
# Method: as §1, §2, §3, §4, §5, §6
# [12] = system: NCI/ADR-RES; conditions: NCI/ADR-RES (Breast Cancer)
# Method: as §1, §2, §3, §4, §5, §6
# [13] = system: MDA-MB-435; conditions: MDA-MB-435 (Breast Cancer)
# Method: as §1, §2, §3, §4, §5, §6
# [14] = system: M14; conditions: M14 (Melanoma)
# Method: as §1, §2, §3, §4, §5, §6
# [15] = system: T-47D; conditions: T-47D (Breast Cancer)
# Method: as §1, §2, §3, §4, §5, §6
# [16] = read-out: LC50 (the source's name)
smiles,measurement,setting,value
CC1(C)C2CC[C@@]1(CS(=O)(=O)N(C1CCCCC1)C1CCCCC1)C(O)C2 (stereo partly drawn) [MT103],TGI,[1],9.73E−05
same,pIC50,[1]; read-out: G150,4.55
same,CC50,[1]; [16],> 100 µM
same,TGI,[2],3.68E−05
same,pIC50,[2]; read-out: G150,4.93
same,CC50,[2]; [16],> 100 µM
same,TGI,[3],6.77E−05
same,pIC50,[3]; read-out: G150,4.59
same,CC50,[3]; [16],> 100 µM
same,TGI,[4],6.30E−05
same,pIC50,[4]; read-out: G150,4.64
same,CC50,[4]; [16],> 100 µM
same,TGI,[5],>1.00E−04
same,pIC50,[5]; read-out: G150,4.57
same,CC50,[5]; [16],> 100 µM
same,TGI,[6],9.83E−05
same,pIC50,[6]; read-out: G150,4.50
same,CC50,[6]; [16],> 100 µM
same,TGI,[7],3.61E−05
same,pIC50,[7]; read-out: G150,4.77
same,CC50,[7]; [16],77.7 µM
same,TGI,[8],9.77E−05
same,pIC50,[8]; read-out: G150,4.62
same,CC50,[8]; [16],> 100 µM
same,TGI,[9],>1.00E−04
same,pIC50,[9]; read-out: G150,4.23
same,CC50,[9]; [16],> 100 µM
same,TGI,[10],4.44E−05
same,pIC50,[10]; read-out: G150,4.88
same,CC50,[10]; [16],> 100 µM
same,TGI,[11],8.33E−05
same,pIC50,[11]; read-out: G150,4.72
same,CC50,[11]; [16],> 100 µM
same,TGI,[12],>1.00E−04
same,pIC50,[12]; read-out: G150,4.46
same,CC50,[12]; [16],> 100 µM
same,TGI,[13],9.88E−05
same,pIC50,[13]; read-out: G150,4.55
same,CC50,[13]; [16],> 100 µM
same,TGI,[14],>1.00E−04
same,pIC50,[14]; read-out: G150,4.17
same,CC50,[14]; [16],> 100 µM
same,TGI,[15],>1.00E−04
same,pIC50,[15]; read-out: G150,4.21
same,CC50,[15]; [16],> 100 µM
